US20240299376A1, “METHOD OF TREATING A CONDITION USING A […] EFFECTIVE DOSE OF 1-(1-OXO-1,2-DIHYDROISOQUINOLIN-5-YL)-5-(TRIFLUOROMETHYL)-N-(2-(TRIFLUOROMETHYL)PYRIDIN-4-YL)-1H-PYRAZOLE-4-CARBOXAMIDE” (Janssen Pharmaceutica NV, priority 2021, published 2024)

Experiments:
[1] = tested on: MALT1 substrate BCL10; test: BCL10 Mesoscale assay of OCI-LY3 tumor samples after a single dose; type: in vivo, NSG mice; conditions: OCI-LY3 tumors
Method: MALT1 protease activity results in the cleavage of negative regulators of the classical NF-κB pathway such as A20, CYLD, RelB, and BCL10. […] The assay measures un-cleaved BCL10 which is increased upon MALT1 inhibition. OCI-LY3 or OCI-LY10 tumors were crushed before lysis in Mammalian Protein Extraction Reagent buffer for 30 minutes at 4° C. Centrifugation of the lysate was done and supernatant kept for analysis in the MSD assay. MSD plates (small spot, goat anti-rabbit coated, MSD L45RA-1) were blocked for 1 hour with 3% Bovine serum Albumin (in Tris-buffered saline, 0.1% Tween 20) and labeled with BCL10 antibody (Abcam #33905) to capture the uncleaved BCL10. 25 μg of tumor lysates were transferred to the BCL 10-labeled MSD plate and incubated for 24 hours at 4° C. followed by 2-hour incubation with BCL10 antibody detecting cleaved/uncleaved BCL10 (ab93022) and 2-hour antibody detection. Plates were read on a SECTOR imager.
As a more direct PD readout, OCI-LY3 tumor samples were analyzed by a BCL 10 Mesoscale assay, looking for cleavage inhibition of the MALT1 substrate BCL10. The assay measures uncleaved BCL10 in tumor.
Tumor uncleaved BCL10 levels are graphed as the mean+SD.
For PD, when tumors reached 550-750 mm^3 animals were assigned randomly into the treatment groups and treated as presented in Table 5. Dose volumes were adjusted to individual body weights at 10 mL/kg. […]

[2] = tested on: OCI-LY10 human DLBCL xenografts; test: Antitumor efficacy in established OCI-LY10 human DLBCL xenografts; type: in vivo, NSG mice; conditions: 3.5 weeks
Method: Tumor volume was calculated using the formula: tumor volume (mm^3)=(Dxd^2/2); where ‘D’ represents the larger diameter, and ‘d’ the smaller diameter of the tumor as determined by caliper measurements. Tumor volume data was graphically represented as the mean tumor volume±SEM.
Percent tumor growth inhibition (TGI) was defined as the difference between mean tumor volumes of the treated and control group, calculated as
where TVc is the mean tumor volume of a given control group and TVt is the mean tumor volume of the treatment group. As defined by National Cancer Institute criteria, ≥60% TGI is considered biologically significant.
Group tumor volumes are graphed as the mean+SEM. Mice were implanted SC on the right flank on Day 0.
OCY-LY10 cells were maintained at 37° C. in a humidified atmosphere (5% CO2, 95% air), in RPMI-1640 medium with GlutaMAX™, supplemented with 10% Fetal Bovine Serum (Heat Inactivated at 57° C.) and 1% Penicillin-Streptomycin. Each mouse received 1×10^6 OCI-LY10 cells in serum-free RPMI-1640 medium with Matrigel in 1:1 ratio in a total volume of 0.2 mL. Cells were implanted SC in the right flank using a 1 mL syringe and a 26-gauge needle. The day of tumor implantation was designated as Day 0.
For study 4, study animals were randomly assigned into treatment groups, when the mean OCI-LY10 tumor volume reached 169 mm^3 (Day 15 post-tumor cell implantation). Treatment was initiated the day after randomization (Day 16). Treatment for the antitumor efficacy study lasted for 24 days until Day 40, when most animals in the Vehicle control group reached ethical tumor volume limits. […] Blood was collected from the retro-orbital sinus and submitted for bioanalytical analysis.

[3] = tested on: OCI-LY3 cells; test: Whole-gene transcriptomics; type: cell-based, human; conditions: OCI-LY3 (Myd88 and CARD11 mutations)
[4] = Single oral dose plasma PK in fasted dogs; type: in vivo, dog; conditions: for bioavailability / AUC(0-inf) / Cmax / Tmax / AUC(0-t) / half-life: beagle, dog, plasma
Source text: With the suspension formulation the double-peak phenomenon is even more pronounced.
As observed in rats, dose escalation in dogs resulting in proportional or dose-related exposure with the PEG400 solution was unsuccessful in identifying a vehicle suitable for toxicology studies.

[5] = female, po, 100 mg/kg, 2F, 100 mg/kg PO, 100% PEG400 solution, Study 7
[6] = female, po, 280 mg/kg, 2F, 280 mg/kg PO, 100% PEG400 solution, Study 7
[7] = male, po, 5 mg/kg, 3M (N = 2 used), 5 mg/kg PO, 100% PEG400 solution, Study 1
[8] = male, po, 5 mg/kg, 3M, 5 mg/kg PO, 0.5% HPMC suspension, Study 4
[9] = male, po, 5 mg/kg, 3M, 5 mg/kg PO, -ZAF salt nanosuspension (HPMC:DOSS suspension), Study 5
[10] = male, po, 20 mg/kg, 3M, 20 mg/kg PO, 0.5% HPMC suspension, Study 2
[11] = male, po, 20 mg/kg, 3M, 20 mg/kg PO, 0.5% HPMC suspension, Study 4
[12] = male, po, 20 mg/kg, 3M, 20 mg/kg PO, 100% PEG400 solution, Study 3
[13] = male, po, 20 mg/kg, 3M, 20 mg/kg PO, -ZAF salt nanosuspension (HPMC:DOSS suspension), Study 5
[14] = male, po, 22.5 mg/kg, 3M, 22.5 mg/kg PO, PEG400/PVP VA 90:10 solution, Study 6

## O=C(Nc1ccnc(C(F)(F)F)c1)c1cnn(-c2cccc3c(=O)[nH]ccc23)c1C(F)(F)F [Compound A, 1-(1-oxo-1,2-dihydroisoquinolin-5-yl)-5-(trifluoromethyl)-N-[2-(trifluoromethyl)pyridin-4-yl]-1H-pyrazole-4-carboxamide]
[1]
  dose giving maximum levels of uncleaved BCL10: ≥ 10 mg/kg
  fraction of uncleaved BCL10 in tumor: dose-dependently increased the fraction of uncleaved BCL10
[2]; 3 mg/kg BID PO, not statistically significant
  TGI: 11%
[2]; 10 mg/kg BID PO
  TGI: 41%
[2]; 30 mg/kg BID PO
  TGI: 54%
[2]; 100 mg/kg BID PO
  TGI: 62%
[3]
  gene expression changes: clear dose-dependent gene expression changes
[4]; Study 7, doses of 100, 280, and 560 mg/kg, PEG400 solution
  increase of Cmax or AUC with dose: ≤ 25%
[4]; po, 5 mg/kg, 5 mg/kg PO, -ZAF salt nanosuspension (HPMC:DOSS suspension), Study 5
  bioavailability: 12 to 69%
[4]; po, 20 mg/kg, 20 mg/kg PO, 0.5% HPMC suspension, Study 4
  bioavailability: 7 to 89%
[4]; po, 20 mg/kg, 20 mg/kg PO, -ZAF salt nanosuspension (HPMC:DOSS suspension), Study 5
  bioavailability: 6.7%
[4]; po, 22.5 mg/kg, 22.5 mg/kg PO, PEG400/PVP VA 90:10 solution, Study 6
  bioavailability: > 100%
[4]; po, 560 mg/kg, 560 mg/kg PO, 100% PEG400 solution, Study 7, N = 1
  AUC(0-inf): 1760 µg·h/mL
[4]; [5]
  AUC(0-inf): 1360 µg·h/mL
  Cmax: 24300 ng/mL
  Tmax: 15.5 h
[4]; female, po, 100 mg/kg, 2F, 100 mg/kg PO, 100% PEG400 solution, Study 7, Tlast = 96 hours
  AUC(0-t): 1250 µg·h/mL
[4]; [6]
  AUC(0-inf): 1680 µg·h/mL
  Cmax: 30600 ng/mL
[4]; female, po, 280 mg/kg, 2F, 280 mg/kg PO, 100% PEG400 solution, Study 7, Tlast = 96 hours
  AUC(0-t): 1510 µg·h/mL
[4]; female, po, 280 mg/kg, 2F, 280 mg/kg PO, 100% PEG400 solution, Study 7, median
  Tmax: 24 h
[4]; female, po, 280 mg/kg, 2F, 280 mg/kg PO, PEG400/PVP VA 90:10 solution, Study 7
  Cmax: 106000 ng/mL
[4]; female, po, 280 mg/kg, 2F, 280 mg/kg PO, PEG400/PVP VA 90:10 solution, Study 7, Tlast = 96 hours
  AUC(0-t): 1970 µg·h/mL
[4]; female, po, 280 mg/kg, 2F, 280 mg/kg PO, PEG400/PVP VA 90:10 solution, Study 7, median
  Tmax: 24 h
[4]; female, po, 480 mg/kg, 2F, 480 mg/kg PO, PEG400/PVP VA 90:10 solution, Study 7
  Cmax: 76600 ng/mL
[4]; female, po, 480 mg/kg, 2F, 480 mg/kg PO, PEG400/PVP VA 90:10 solution, Study 7, Tlast = 96 hours
  AUC(0-t): 1510 µg·h/mL
[4]; female, po, 480 mg/kg, 2F, 480 mg/kg PO, PEG400/PVP VA 90:10 solution, Study 7, median
  Tmax: 27.5 h
[4]; female, po, 560 mg/kg, 2F, 560 mg/kg PO, 100% PEG400 solution, Study 7
  Cmax: 31800 ng/mL
[4]; female, po, 560 mg/kg, 2F, 560 mg/kg PO, 100% PEG400 solution, Study 7, Tlast = 96 hours
  AUC(0-t): 2010 µg·h/mL
[4]; female, po, 560 mg/kg, 2F, 560 mg/kg PO, 100% PEG400 solution, Study 7, median
  Tmax: 24 h
[4]; from 22.5 to 280 mg/kg, PVP VA in PEG400 solution
  increase in Cmax and AUC: approximately 5 fold
[4]; male, oral, 5 mg/kg, 5 mg/kg PO, 100% PEG400 solution, Study 1, calculated using the IV data from Study 1
  bioavailability: > 100%
[4]; male, po, 5 mg/kg, 5 mg/kg PO, 0.5% HPMC suspension, Study 4
  bioavailability: 14 to 66%
[4]; [7]
  AUC(0-inf): 146 µg·h/mL
  Cmax: 6150 ng/mL
  Tmax: 2 h
  half-life: 17.3 h
[4]; male, po, 5 mg/kg, 3M (N = 2 used), 5 mg/kg PO, 100% PEG400 solution, Study 1, Tlast = 48 hours
  AUC(0-t): 143 µg·h/mL
[4]; [8]
  AUC(0-inf): 30.7 µg·h/mL
  AUC(0-t): 43.7 µg·h/mL
  Cmax: 2030 ng/mL
  Tmax: 9 h
  half-life: 21.8 h
[4]; [9]
  AUC(0-inf): 26.4 µg·h/mL
  AUC(0-t): 43.7 µg·h/mL
  Cmax: 1450 ng/mL
  Tmax: 9.33 h
  half-life: 11.5 h
[4]; male, po, 20 mg/kg, 20 mg/kg PO, 0.5% HPMC suspension, Study 2, N = 1 animal with low exposure
  AUC(0-inf): 15.6 µg·h/mL
[4]; male, po, 20 mg/kg, 20 mg/kg PO, 100% PEG400 solution, Study 3
  bioavailability: 33 to 72%
[4]; [10]
  Cmax: 4010 ng/mL
  Tmax: 16.7 h
  half-life: 17.8 h
[4]; male, po, 20 mg/kg, 3M, 20 mg/kg PO, 0.5% HPMC suspension, Study 2, Tlast = 72 hours
  AUC(0-t): 153 µg·h/mL
[4]; [11]
  AUC(0-inf): 31.8 µg·h/mL
  AUC(0-t): 160 µg·h/mL
  Cmax: 4080 ng/mL
  Tmax: 16.7 h
  half-life: 14.3 h
[4]; [12]
  AUC(0-inf): 224 µg·h/mL
  Cmax: 5770 ng/mL
  Tmax: 8.33 h
  half-life: 18.6 h
[4]; male, po, 20 mg/kg, 3M, 20 mg/kg PO, 100% PEG400 solution, Study 3, Tlast = 96 hours
  AUC(0-t): 215 µg·h/mL
[4]; [13]
  AUC(0-inf): 87 µg·h/mL
  AUC(0-t): 111 µg·h/mL
  Cmax: 3510 ng/mL
  Tmax: 9 h
  half-life: 16.6 h
[4]; [14]
  AUC(0-inf): 757 µg·h/mL
  Cmax: 21000 ng/mL
  Tmax: 1.25 h
  half-life: 14.1 h
[4]; male, po, 22.5 mg/kg, 3M, 22.5 mg/kg PO, PEG400/PVP VA 90:10 solution, Study 6, Tlast = 96 hours
  AUC(0-t): 741 µg·h/mL
